Measurements published in US10375956B2, “Herbicidally active 2-(substituted-phenyl)-cyclopentane-1,3-dione compounds and derivatives thereof” (Syngenta Limited, priority 2013, dated 2019).

Tests used:
Assay type in all cases: in vivo
[1] = test system: Setaria faberi (SETFA); test: Biological Example 3 glasshouse assay, post-emergence, various adjuvant systems; conditions: 8 g/ha; for percentage control of Setaria faberi: adjuvant 0.5% v/v TEHP + 1.0% v/v AMS + 12.5% v/v IPA; for percentage control of (phytotoxicity on) Setaria faberi (SETFA): adjuvant 0.5% v/v Hexamoll DINCH + 1.0% v/v AMS + 12.5% v/v IPA
Procedure: Post-emergence foliar spray application, 200 L/ha, usually one or two replicates for the weeds (depending on application rate), and two replicates for soybean.
Standard warm conditions (tropical), in glasshouse. Specifically, the glasshouse bay conditions are 24° C./18° C. day/night; 16/8 hours light/dark; 65% humidity.
The herbicidal application takes place at the following growth stages for plants which include inter alia one or more of the following plants (usually the herbicidal application takes place on at least the following plants: DIGSA, ELEIN, SETFA, ZEAMX, GLXMA Nikko, and GLXMA TMG133, and often also either BRADC or BRAPP):
Setaria faberi (SETFA)—growth stage 12 or 13
Each test compound is applied with one of the following adjuvant systems (all percentages are final concentrations in the aqueous spray mixture):
Adjuvant system 2: 0.5% v/v Hexamoll™ DINCH**, 1.0% v/v AMS (ammonium sulphate) and 12.5% v/v IPA (isopropyl alcohol).
Adjuvant system 3: 0.5% v/v tris-(2-ethylhexyl)phosphate (“TEHP”), 1.0% v/v AMS (ammonium sulphate) and 12.5% v/v IPA (isopropyl alcohol).
Seeds of the weed (including volunteer) plants, typically including inter alia Digitaria sanguinalis (DIGSA), Eleusine indica (ELEIN), Setaria faberi (SETFA), Zea mays (ZEAMX, corn), and sometimes also [either Brachiaria decumbens (BRADC) or Brachiaria platyphylla (BRAPP)], are sown in seed trays (troughs) containing clay loam soil (pH 7.0, 2.2% organic matter, “Trough Mix A”); and soybean seed is sown in pots containing the same soil with 3 soybean seedlings per pot. The plants are sprayed with the test herbicide when they reach the growth stages mentioned above.
The test herbicidal solutions are prepared by mixing the appropriate aliquots of the test substance(s) and one of the adjuvant systems indicated above *** in deionised water to give the desired treatment concentration.
The herbicidal application is made as a foliar spray, using a tracksprayer. Following the herbicidal application, the plants are watered twice per day for the duration of the test.
A visual assessment of the % herbicidal damage is made 7 and 14 Days After herbicide Application (DAA) (or, in a minority of cases, 7 and 15 DAA), and the results are recorded as % visual herbicidal damage where 0%=no damage to plants and 100%=plant totally killed.
Compounds A2 and A7 were tested using the 0.5% v/v Hexamoll™ DINCH™+1.0% v/v AMS+12.5% v/v IPA adjuvant system. Compounds A11, A12, A14, A20 and A21 were tested using the 0.5% v/v tris-(2-ethylhexyl)phosphate (“TEHP”)+1.0% v/v AMS+12.5% v/v IPA adjuvant system.
The percentages of herbicidal damage/plant control, at 14 Days After herbicide Application (DAA) (or, in some cases, at 15 DAA), for the Compounds tested and for some of the plants tested, were in the following percentage ranges. For the tested compounds, the phytotoxicity results shown herein are generally the average of 2 or 3 repetitions (for the grassy weeds including corn) or the average of 2 repetitions (for soybean for most of the tested compounds). However, for Compound A2 on soybean there was 1 repetion only.

[2] = test system: Beta vulgaris (BEAVA, sugarbeet); test: Test 2 glasshouse assay (IF50 formulation, X-77), post-emergence herbicidal activity; conditions: 360 h, 15 DAA, visual score, read-out: Post-emergence herbicidal activity (percentage phytotoxicity) BEAVA; for plant injury at 30 g/ha: application rate 30 g/ha; for plant injury at 250 g/ha: application rate 250 g/ha; for plant injury at 125 g/ha: application rate 125 g/ha
Summary of the method: (§1)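 Plants grown ~12 days (range 10-13) in glasshouse (cool species 20/16° C., warm 24/18° C. day/night; 16 h light; 65% humidity), then sprayed post-emergence with IF50 formulation in aqueous 0.2% v/v X-77. Visual percentage phytotoxicity scored 15 days after application (100% = total damage, 0% = none).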

[3] = test system: Brassica napus (BRSNN, rape); test: as above; conditions: 360 h, 15 DAA, visual score, read-out: Post-emergence herbicidal activity (percentage phytotoxicity) BRSNN; for plant injury at 30 g/ha: application rate 30 g/ha; for plant injury at 250 g/ha: application rate 250 g/ha; for plant injury at 125 g/ha: application rate 125 g/ha
Summary of the method: as §1

[4] = test system: Glycine max (GLXMA, soybean); test: as above; conditions: 360 h, 15 DAA, visual score, read-out: Post-emergence herbicidal activity (percentage phytotoxicity) GLXMA; for plant injury at 30 g/ha: application rate 30 g/ha; for plant injury at 250 g/ha: application rate 250 g/ha; for plant injury at 125 g/ha: application rate 125 g/ha
Summary of the method: as §1

[5] = test system: Alopecurus myosuroides (ALOMY); test: as above; conditions: 360 h, 15 DAA, visual score, read-out: Post-emergence herbicidal activity (percentage phytotoxicity) ALOMY; for pest or weed control at 30 g/ha: application rate 30 g/ha; for pest or weed control at 250 g/ha: application rate 250 g/ha; for pest or weed control at 125 g/ha: application rate 125 g/ha
Procedure: (§2) Seeds of a variety of monocotyledonous and dicotyledonous test plants are sown in standard soil in pots. The plants are cultivated for one day (for pre-emergence) or for about 12 days (for post-emergence) under controlled conditions in a glasshouse (warm climate species at 24/18° C., cool climate species at 20/16° C., both at day/night; 16 hours light; 65% humidity).
(§3) An “instant formulation”, known as the “IF50”, containing 50 g/liter (i.e. 5% w/v) of the “technical” (i.e. unformulated) active ingredient is prepared by dissolving the active ingredient in a mixture of organic solvents and emulsifier, details of which are provided in the Table below. This IF50 is then mixed with a small, variable amount of acetone to aid dissolution, before addition of a 0.2% v/v aqueous solution of the adjuvant X-77 (which is a mixture of alkyl aryl polyoxyethylene glycols and free fatty acids in isopropanol, CAS Registry number 11097-66-8), as the aqueous diluent, to form an aqueous spray solution which contains a predetermined concentration of the active ingredient (which varies depending on the application rate of the active ingredient to the plants) and 0.2% v/v of the adjuvant X-77. This aqueous spray solution is then sprayed onto the plants, after one day's cultivation (for pre-emergence), or after about 12 days' cultivation (range=10-13 days) (for post-emergence).
(§4) The test plants are then grown on, in a glasshouse (greenhouse) under controlled conditions (warm climate species at 24/18° C., cool climate species at 20/16° C., both at day/night; 16 hours light; 65% humidity) and are watered twice daily. 15 days after application of the test herbicide (15DAA) (for post-emergence), and 20 days after application of the test herbicide (20DAA) (for pre-emergence), the test plants are evaluated visually, and an assessed percentage phytotoxicity score is given for each herbicidal application on each plant species (with 100%=total damage to plant; 0%=no damage to plant).
(§5) Cool climate (“cool season”) grassy monocotyledonous weeds: Alopecurus myosuroides (ALOMY), Avena fatua (AVEFA), Lolium perenne (LOLPE).

[6] = test system: Avena fatua (AVEFA); test: as above; conditions: 360 h, 15 DAA, visual score, read-out: Post-emergence herbicidal activity (percentage phytotoxicity) AVEFA; for pest or weed control at 30 g/ha: application rate 30 g/ha; for pest or weed control at 250 g/ha: application rate 250 g/ha; for pest or weed control at 125 g/ha: application rate 125 g/ha
Procedure: as §2, §3, §4, §5

[7] = test system: Lolium perenne (LOLPE); test: as above; conditions: 360 h, 15 DAA, visual score, read-out: Post-emergence herbicidal activity (percentage phytotoxicity) LOLPE; for pest or weed control at 30 g/ha: application rate 30 g/ha; for pest or weed control at 250 g/ha: application rate 250 g/ha; for pest or weed control at 125 g/ha: application rate 125 g/ha
Procedure: as §2, §3, §4, §5

| Structure (SMILES) | percentage control of Setaria faberi ([1]; 14 or 15 DAA) [%] | plant injury at 30 g/ha [2] [%] | plant injury at 250 g/ha [2] [%] | plant injury at 30 g/ha [3] [%] | plant injury at 250 g/ha [3] [%] | plant injury at 30 g/ha [4] [%] | plant injury at 250 g/ha [4] [%] | pest or weed control at 30 g/ha [5] [%] | pest or weed control at 250 g/ha [5] [%] | pest or weed control at 30 g/ha [6] [%] | pest or weed control at 250 g/ha [6] [%] | pest or weed control at 30 g/ha [7] [%] | pest or weed control at 250 g/ha [7] [%] | other results |
| --- | --- | --- | --- | --- | --- | --- | --- | --- | --- | --- | --- | --- | --- | --- |
| C#CCC1CC(=O)C(c2c(F)cc(-c3ccc(F)cc3F)cc2OC)C1=O (stereo not shown) [Compound A21] | 85 | – | – | – | – | – | – | – | – | – | – | – | – | – |
| C#CCC1CC(=O)C(c2c(C)cc(-c3ccc(Cl)cn3)cc2C)C1=O (stereo not shown) [Compound A2] | – | 40 | 50 | 50 | 80 | 10 | 20 | 20 | 100 | 60 | 90 | 30 | 90 | percentage control of (phytotoxicity on) Setaria faberi (SETFA) ([1]; 14 DAA): 90% |
| C#CCC1CC(=O)C(c2c(Cl)cc(-c3ccc(Cl)cc3)cc2OC)C1=O (stereo not shown) [Compound A11, 2-[2-chloro-4-(4-chlorophenyl)-6-methoxyphenyl]-4-prop-2-ynylcyclopentane-1,3-dione] | – | 20 | 70 | 30 | 70 | 0 | 20 | 30 | 70 | 20 | 70 | 30 | 40 | percentage control of Setaria faberi ([1]; 14 DAA): 98% |
| C#CCC1CC(=O)C(c2c(F)cc(-c3ccc(F)cc3)cc2OC)C1=O (stereo not shown) [Compound A20, 2-[2-fluoro-4-(4-fluorophenyl)-6-methoxyphenyl]-4-prop-2-ynylcyclopentane-1,3-dione] | 90 | – | – | – | – | – | – | – | – | – | – | – | – | – |
| C#CCC1CC(=O)C(c2c(Cl)cc(-c3ccc(F)cc3)cc2OC)C1=O (stereo not shown) [Compound A7] | – | 20 | 70 | 60 | 80 | 0 | 20 | 10 | 100 | 20 | 100 | 30 | 80 | percentage control of (phytotoxicity on) Setaria faberi (SETFA) ([1]; 14 DAA): 91.7% |
| C#CCC1CC(=O)C(c2c(F)cc(-c3ccc(Cl)cc3)cc2OC)C1=O (stereo not shown) [Compound A14] | – | – | – | – | – | – | – | – | – | – | – | – | – | plant injury at 125 g/ha [2]: 10%; plant injury at 125 g/ha [3]: 0%; plant injury at 125 g/ha [4]: 0%; pest or weed control at 125 g/ha [5]: 60%; pest or weed control at 125 g/ha [6]: 40%; pest or weed control at 125 g/ha [7]: 20%; percentage control of Setaria faberi ([1]; 15 DAA): 95% |
| C#CCC1CC(=O)C(c2c(F)cc(-c3ccc(Cl)cn3)cc2Cl)C1=O (stereo not shown) [Compound A8] | – | 10 | 60 | 70 | 80 | 20 | 40 | 50 | 80 | 50 | 90 | 40 | 60 | – |
| C#CCC1CC(=O)C(c2c(Cl)cc(-c3ccc(F)cc3F)cc2OC)C1=O (stereo not shown) [Compound A12] | 95 | 40 | – | 50 | – | 0 | – | 60 | – | 10 | – | 30 | – | plant injury at 125 g/ha [2]: 40%; plant injury at 125 g/ha [3]: 60%; plant injury at 125 g/ha [4]: 0%; pest or weed control at 125 g/ha [5]: 80%; pest or weed control at 125 g/ha [6]: 80%; pest or weed control at 125 g/ha [7]: 90% |
